Assay results: publication PMC7272100 (PLoS ONE, 2020)

Columns and labels:
[1] = Stability of peptides in cells (inferred from WST-1 assay); settings: deduced from WST-1 results after 48 hours of incubation
[2] = tested on: C-terminal domain (residues, 293–393); settings: monomeric fragment versus tetrameric form; ref [50]; cited from earlier work
Source text: (§1) With a helix–loop–helix pattern, these proteins are site-specific and form homo and heterodimers. These proteins interact with copper, zinc, and calcium ions, and calcium-binding facilitates a variety of extracellular and intracellular governing consequences of these proteins. […] Further, it was also found to connect with the p53 tetrameriza ...

[3] = tested on: MDM2 N- terminal domain (2–125); settings: ref [52]; cited from earlier work
Source text: as §1

[4] = tested on: p53 peptide (residues, 367–393); settings: ref [49]; cited from earlier work
Source text: as §1

[5] = tested on: p53 tetramerization domain (residues, 325–355); settings: ref [49]; cited from earlier work
Source text: as §1

[6] = tested on: p53 transactivation domain (residues, 1–57); settings: fluorescence anisotropy; ref [50]; cited from earlier work
Source text: as §1

[7] = tested on: phosphorylated p53 N-terminus; settings: single-site phosphorylation, fluorescence anisotropy; ref [51]; cited from earlier work
Source text: as §1

[8] = HIV-TAT alone; ref [79]; cited from earlier work
Source text: [79] […] The (LLKK)3 imparts an amphiphilic α-helical conformation to the peptide that disrupts the cellular membranes. […] [81] Altogether it can be inferred that the TAT sequence has a very minimal effect to the confirmation of the conjugated partner under consideratio ...

[9] = tested on: various cell lines including MCF-7; set-up: method as in PMID 19914216; settings: ref [85], cited from earlier work
[10] = tested on: HeLa cells; settings: N-terminal fluorescein tagged, even after five hours; ref [86]; cited from earlier work
Source text: [86] […] [85] […] [ ...

[11] = ref [77]; cited from earlier work
Source text: We selected residues from 76 to 92 (17 residues) for our peptide construction.

[12] = tested on: MDM2-p53 complex; experiment: HSQC-NMR competitive binding experiment; set-up: species or system human; settings: unlabeled p53 added to 15N-labeled MDM2, 1:1, pH 7.2
Method: HSQC- NMR competitive binding experiment
All the experiments were carried out in the NMR buffer containing 20 mM Tris-HCl, 15 mM NaCl, 20 mM CaCl2, 20 mM DTT, 0.1% NaN3, and 10% D2O; pH 7.2.

[13] = tested on: MDM2 (17–125); settings: p53 (1–73), besides helix region (18–26); ref [70]; cited from earlier work
[14] = target: T1, p53-TAD (residues 1-73), N-terminal domain of p53 (UniProt P04637 1-73); experiment: other fluorescence titration; tryptophan fluorescence of p53 (1-73), excitation 295 nm; Peptide 1 0 to 12.0 uM added to 2 uM p53; 20 mM Tris-HCl, 15 mM NaCl, 20 mM CaCl2, 20 mM DTT, 0.1% NaN3, pH 7.2; settings: both partners purified
T1 construct: cleaved protein of 8.6 kDa; plasmid a gift of G. Daughdrill; Used unlabelled or 15N-labelled; also called p53 (1-73); p53 N-terminal domain; source: bacterial cells in M9 media, purified (Ni-NTA, thrombin digestion, Superdex 75)
T1 sequence (P04637 1-73): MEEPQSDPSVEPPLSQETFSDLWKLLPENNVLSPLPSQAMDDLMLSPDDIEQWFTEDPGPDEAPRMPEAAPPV

## CC(C)C[C@H](NC(=O)[C@H](C)NC(=O)[C@H](C)NC(=O)[C@@H](NC(=O)[C@H](CC(C)C)NC(=O)[C@@H](NC(=O)[C@@H](NC(=O)[C@H](CCCNC(=N)N)NC(=O)[C@H](CCCNC(=N)N)NC(=O)[C@H](CCCNC(=N)N)NC(=O)[C@H](CCC(N)=O)NC(=O)[C@H](CCCNC(=N)N)NC(=O)[C@H](CCCNC(=N)N)NC(=O)[C@H](CCCCN)NC(=O)[C@H](CCCCN)NC(=O)[C@H](CCCNC(=N)N)NC(=O)CNC(=O)[C@@H](N)Cc1ccc(O)cc1)C(C)C)C(C)C)C(C)C)C(=O)N[C@H](C(=O)N[C@H](C(=O)N[C@@H](C)C(=O)N[C@@H](CS)C(=O)N[C@@H](CC(N)=O)C(=O)N[C@@H](CC(N)=O)C(=O)N[C@@H](Cc1ccccc1)C(=O)N[C@@H](Cc1ccccc1)C(=O)N[C@@H](Cc1c[nH]c2ccccc12)C(=O)N[C@@H](CCC(=O)O)C(=O)O)C(C)C)[C@@H](C)O [Peptide 1]
[1]
  stability in cells: quite stable

## S100A1: human S100A1 protein produced in BL21 (DE3) E. coli [Peptide S100A1]
[2]
  binding to p53 C-terminal domain (293–393): could bind to the monomeric fragment of the C-terminal domain (residues, 293–393) but unable to form a complex with the tetrameric form
[3]
  association with MDM2 N-terminal domain (2–125): found to associate with the MDM2 N- terminal domain (2–125) and does not lead to the formation of a ternary complex with MDM2 and p53
[4]
  association with p53 peptide (367–393): found to associate with the p53 peptide (residues, 367–393)
[5]
  interaction with p53 TET domain (325–355): only interacted with the TET domain when its oligomerization state was lowered (monomers or dimers)
[6]
  binding to p53 transactivation domain (1–57): binding of S100A1 to the p53 transactivation domain (residues, 1–57)
[7]
  affinity of phosphorylated p53 N-terminus for S100A1: increased affinity for S100A1

## YGRKKRRQRRR [TAT peptide]
[8]
  conformation by CD spectrum: unstructured form
[9]; above 5 μM
  cytotoxicity of TAT peptide, above 5 μM: 11–22%
[9]; up to 5 μM
  cytotoxicity of TAT peptide, up to 5 μM: non-toxic
[10]
  stability of TAT peptide (cytoplasmic fluorescence): quite stable
[11]
  delivery of heterologous proteins: cytoplasmic delivery of heterologous proteins which was independent of the cell type

## p53 (1–73): p53-TAD (residues, 1–73)
[12]
  effect on 15N labeled MDM2 HSQC peaks: several ^15N labeled MDM2 peaks were shifted and/or disappeared
[13]
  p53 regions able to bind to MDM2: nascent turns 1 (40–45) and 2 (49–54) are furthermore able to bind to MDM2

B1: Peptide 1 (HIV-TAT + S100A1 derived peptide) (peptide)
peptide: YGRKKRRQRRRVVLVAALTVACNNFFWE
notes: HIV-TAT cell-penetrating segment derived from the TAT protein of human immunodeficiency virus; S100A1, human, C-terminal residues 76 to 92 (17 residues); 28 residues; the TAT segment stands N-terminal of the S100A1 stretch; also called fusion peptide; source: synthetic peptide, bought: Kelowna International Scientific Inc., >= 95% purity
[14]
  Kd: ~590 nM
